Legend:
[1] = tested on: SNB-19; test: NCI-60 screen (SRB), CNS cancer; details: Homo sapiens
[2] = tested on: SN12C; test: NCI-60 screen (SRB), renal cancer; details: Homo sapiens
[3] = tested on: DU-145; test: NCI-60 screen (SRB), prostate cancer; details: Homo sapiens
[4] = tested on: IGROV1; test: NCI-60 screen (SRB), ovarian cancer; details: Homo sapiens
[5] = tested on: ACHN; test: NCI-60 screen (SRB), renal cancer; details: Homo sapiens
[6] = tested on: SK-MEL-28; test: NCI-60 screen (SRB), melanoma; details: Homo sapiens
[7] = tested on: UACC-62; test: NCI-60 screen (SRB), melanoma; details: Homo sapiens
[8] = tested on: K-562; test: NCI-60 screen (SRB), leukemia; details: Homo sapiens
[9] = tested on: CAKI-1; test: NCI-60 screen (SRB), renal cancer; details: Homo sapiens
[10] = tested on: SK-OV-3; test: NCI-60 screen (SRB), ovarian cancer; details: Homo sapiens
[11] = tested on: OVCAR-3; test: NCI-60 screen (SRB), ovarian cancer; details: Homo sapiens
[12] = tested on: colon cancer cell lines; test: NCI-60 screen (SRB), colon cancer panel; format: cell-based; details: Homo sapiens, single dose 10 μM, read-out: GI (growth inhibition), range over panel
[13] = tested on: HS 578T; test: NCI-60 screen (SRB), breast cancer; details: Homo sapiens, Hs-578T
[14] = tested on: HT29; test: NCI-60 screen (SRB), colon cancer; details: Homo sapiens
[15] = tested on: NCI-H322M; test: NCI-60 screen (SRB), non-small cell lung cancer; format: cell-based; details: Homo sapiens
Experimental: All compounds selected by the US National Cancer Institute (NCI) were initially tested at a single dose (10^−5 M) on the full panel of 60 cancer cell lines represented by leukemia, melanoma, lung, colon, central nervous system (CNS), ovarian, kidney, prostate and breast cancer. Only compounds that were able to satisfy the predetermined inhibition criteria against a minimum number of cell lines proceeded to five-dose assays ([…], 0.1 and 0.01 μM).
In these studies, human cancer cell lines were cultured in a RPMI-1640 medium containing 5% fetal bovine serum and 2 mM of L-glutamine. Following the protocol for a typical assay, cells were inoculated into 96-well plates and incubated at 37 °C, 5% CO2, 95% air, and 100% relative humidity for 24 h prior to the addition of the compounds to be tested. After 24 h, two plates of each cell line were fixed in situ with trichloroacetic acid (TCA) to represent a measure of the cell population for each cell line at the time of sample addition (Tz). Compounds were dissolved in DMSO to 400-fold the maximum desired concentration for analysis and subsequently diluted to twice the maximum desired concentration with medium containing 50 μg/mL gentamicin. An additional series of four dilutions at 10-fold concentration was performed to provide a total of five concentrations of the compound plus the control. Aliquots of 100 μL of these dilutions were taken and added to 96-well plates already containing 100 μL of the medium, resulting in the final required concentrations of the sample. The plates were incubated for 48 h at the same conditions. For adherent cells, the assay was terminated with the addition of cold TCA. Cells were fixed in situ by the slow addition of 50 μL of 50% (w/v) cold ATC (final concentration, 10% TCA) and incubated for 60 min at 4 °C. The supernatant was discarded, and the plates were washed five times with tap water and air dried. A quantity of 100 μL of 0.4% (w/v) sulforhodamine B (SRB) solution in 1% acetic acid was added to each well, and each plate was incubated for 10 min at room temperature. Upon completion of staining, unbound pigment was removed by five washes with 1% acetic acid and the plates were air-dried. The stains were solubilized with 10 mM Trizma base and absorbance was recorded on an automated plate reader at a wavelength of 515 nm. Using the absorbance measurements [time zero (Tz), growth control in the absence of the sample and growth test in the presence of the sample at the five concentration levels (Ti)], the percent growth was calculated for each sample at the concentration levels. The percent growth was calculated as: [(Ti − Tz)/(C − Tz)] × 100 for concentrations for which Ti > Tz, and [(Ti − Tz)/Tz] × 100 for concentrations for which Ti < Tz. Two dose-response parameters were calculated for each compound. The 50% growth inhibition (GI50) was calculated from [(Ti − Tz)/(C − Tz)] × 100 = 50, which is the sample concentration at which the net increase in protein is 50% lower in treated cells (as measured by SRB staining) compared to the net increase in protein seen in control cells and the LC50 (sample concentration at which a 50% reduction in protein measured at the end of treatment compared to the beginning), indicating a net loss of cells; calculated from [(Ti − Tz)/Tz] × 100 = −50. Values were calculated for each of these two parameters if the activity level was reached; however, if the effect was not reached or was exceeded, the value for that parameter was expressed as greater or less than the maximum or minimum of the concentration tested.

[16] = tested on: SK-MEL-2; test: NCI-60 screen (SRB), melanoma; details: Homo sapiens
[17] = tested on: SF-268; test: NCI-60 screen (SRB), CNS cancer; details: Homo sapiens
[18] = tested on: 786-0; test: NCI-60 screen (SRB), renal cancer; details: Homo sapiens
[19] = tested on: T-47D; test: NCI-60 screen (SRB), breast cancer; details: Homo sapiens, T47D

Which results are given for `COc1cc(OC)c(S(N)(=O)=O)cc1C(=O)/C=C/c1ccc(C)cc1` [Compound 17c, (E)-2,4-Dimethoxy-5-(3-(p-tolyl)acryloyl)benzenesulfonamide]?
IC50 ([1]; SNB-19): 3.65 µM; CC50 ([1]; SNB-19, read-out: LC50): 45.3 µM; IC50 [2]: 2.95 µM; CC50 ([2]; read-out: LC50): 38.8 µM; IC50 ([3]; DU-145): 4.23 µM; CC50 ([3]; DU-145, read-out: LC50): 65.1 µM; IC50 ([4]; IGROV-1): 3.56 µM; CC50 ([4]; IGROV-1, read-out: LC50): 72.4 µM; IC50 [5]: 3.86 µM; CC50 ([5]; read-out: LC50): 37.3 µM; IC50 ([6]; SK-MEL-28): 4.09 µM; CC50 ([6]; SK-MEL-28, read-out: LC50): 40.8 µM; IC50 ([7]; UACC-62): 3.63 µM; CC50 ([7]; UACC-62, read-out: LC50): 46.2 µM; IC50 ([8]; K562): 2.43 µM; CC50 ([8]; K562, read-out: LC50): > 100 µM; IC50 ([9]; CAKI-1): 2.42 µM; CC50 ([9]; CAKI-1, read-out: LC50): 35.2 µM; IC50 ([10]; SK-OV-3): 3.18 µM; CC50 ([10]; SK-OV-3, read-out: LC50): 32.5 µM; IC50 ([11]; OVCAR-3): 3.05 µM; CC50 ([11]; OVCAR-3, read-out: LC50): > 100 µM; inhibition at 10 µM [12]: 83 to 100%; IC50 [13]: 3.5 µM; CC50 ([13]; read-out: LC50): > 100 µM; IC50 ([14]; HT-29): 3.5 µM; CC50 ([14]; HT-29, read-out: LC50): 64.7 µM; IC50 ([15]; five-dose screen): 2.87 µM; CC50 ([15]; read-out: LC50): 34.7 µM; IC50 ([16]; SK-MEL-2): 11.5 µM; CC50 ([16]; SK-MEL-2, read-out: LC50): 55.7 µM; IC50 ([17]; SF-268): 3.2 µM; CC50 ([17]; SF-268, read-out: LC50): > 100 µM; IC50 ([18]; 786-0): 3.85 µM; CC50 ([18]; 786-0, read-out: LC50): > 100 µM; IC50 [19]: 2.32 µM; CC50 ([19]; read-out: LC50): 44.8 µM
